The text below walks through data of patent US11957699B2, “Composition comprising punicalagin for inhibiting PAR2 activity” (INDUSTRY-ACADEMIC COOPERATION FOUNDATION, YONSEI UNIVERSITY, priority 2018, dated 2024).

Data set [1] has as its system conjunctival epithelial cells. Put plainly: IL-6 secretion by house dust mite (HDM) in conjunctival epithelial cells (enzyme immunoassay). The settings on record: 10 μg/mL HDM 24 hours. It counts as cell-based, human. How it is done: Next, conjunctival epithelial cells showing a high response to the concentration increase of intracellular calcium ions by HDM and PAR2-AP were treated with 1, 3, and 10 μM punicalagin, and after treating with 10 μg/mL HDM for 24 hours, secreted IL-6 cytokines were measured by enzyme immunoassay. As a result, it was confirmed that 1, 3, and 10 μM punicalagin inhibited about 50, 91, and 93% of IL-6 cytokines that were increased by HDM, respectively (panel C of FIG. 5).

Data set [2] deals with SD rats with colitis induced by TNBS. Nature of the data set: Colitis induced by trinitrobenzene sulfonic acid (TNBS) in rats. The conditions noted are these: 1, 3 and 10 mg/kg intraperitoneally for 3 days. It counts as in vivo. On the procedure: Specifically, 80 mg/kg TNBS was diluted in 50% ethanol and injected into the anus of rats, and punicalagin (1, 3, and 10 mg/kg) was intraperitoneally injected for 3 days. As control groups, a group which was intraperitoneally injected with PBS and treated with 50% ethanol only (n=3) and a group which was intraperitoneally injected with PBS and was treated only with TNBS (n=3) were established, and weight change was measured. After 3 days, the rats of each group were sacrificed, the colon was extracted to measure the length, and the spleen was extracted and weighed.

Data set [3] relates to SD rats with acute pancreatitis induced by caerulein. Put plainly: Acute pancreatitis induced by caerulein in rats. It counts as in vivo. How it is done:
In 6-week-old SD rats, it was confirmed whether punicalagin has an effect of alleviating symptoms of acute pancreatitis induced by caerulein.
Specifically, […], and after 30 minutes, 40 μg/kg of caerulein, which is an acute pancreatitis-inducing substance, was intraperitoneally injected, and then, after 2 hours, the pancreas of the experimental animals was extracted and analyzed.
First, the weight of the extracted pancreas was measured to determine whether punicalagin inhibits edema, which is a symptom of acute pancreatitis. As a result, it was confirmed that when 10 mg/kg punicalagin was administered to […], in which acute pancreatitis was induced by caerulein, the edema of the pancreas was inhibited by 95% or more (panel A of FIG. 8).
Next, as a result of observing the nucleus and cytoplasm of the extracted pancreatic tissue with a microscope through H&E staining in order to confirm the damage to pancreatic cells by caerulein, it was confirmed that in the rats administered with caerulein, the distance between pancreatic cells was increased and the cells were damaged due to symptoms of acute pancreatitis.

Data set [4] can be described thus: Weight change of wild-type mice. It counts as in vivo. The settings on record: 10 mg/kg intraperitoneally at 2-day intervals. On the procedure: (§1) In order to determine the toxicity of punicalagin, the effect of NIH3T3 cells on cell viability and the weight change of 8-week-old wild-type mice were evaluated, and the heart, liver, and lung were extracted from 30-week-old lupus mice and were histologically evaluated by performing hematoxylin-eosin staining.

Data set [5] concerns heart, liver, and lung tissues of lupus mice. Nature of the data set: Histology (hematoxylin-eosin) of heart, liver and lung of lupus mice. It counts as in vivo. The settings on record: 3 mg/kg, 1 mg/kg, and 0.3 mg/kg; vs saline or methylprednisolone groups. On the procedure: as §1
The next data set has as its system carbonic anhydrase. The conditions noted are these: cited from earlier work.
The conditions of data set [6]: rats, 6% punicalagin diet for 37 days; cited from earlier work.
Data set [7] addresses T1, PAR2 (Homo sapiens, UniProt P55085).
T1 sequence (P55085 26-397): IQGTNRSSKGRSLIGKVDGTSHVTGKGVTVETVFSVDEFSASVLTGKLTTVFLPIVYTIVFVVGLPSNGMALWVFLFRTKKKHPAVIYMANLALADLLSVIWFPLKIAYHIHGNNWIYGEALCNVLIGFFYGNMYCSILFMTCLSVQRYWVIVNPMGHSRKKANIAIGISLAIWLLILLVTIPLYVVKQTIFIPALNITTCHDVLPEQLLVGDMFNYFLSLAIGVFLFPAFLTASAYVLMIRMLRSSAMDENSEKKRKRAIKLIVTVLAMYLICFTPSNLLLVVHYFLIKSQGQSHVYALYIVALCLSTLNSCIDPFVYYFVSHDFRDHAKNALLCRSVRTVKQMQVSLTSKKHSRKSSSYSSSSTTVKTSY
Nature of the data set: Intracellular calcium increase by house dust mite extract and PAR2-AP in primary cultured conjunctival epithelial cells. It counts as cell-based. On the set-up: endogenous in cells. The conditions noted are these: 10 μM, 10 μg/mL HDM extract, 100 μM PAR2-AP. On the procedure: In order to determine whether punicalagin has an effect of inhibiting cytokine secretion by house dust mites (HDM), after removing a culture medium of conjunctival epithelial cells that were primary cultured and differentiated in a transwell, 300 μL of the Flou4-NW dye mixture was added, and then, it was stabilized for 1 hour such that a Ca^2+ dye was loaded into the cells while blocking the light. Next, punicalagin was pretreated by concentration (0, 10, and 30 μM) for 10 minutes, and then, it was treated with a 10 μg/mL house dust mite extract (HDM extract). Afterwards, the concentration change of calcium ions (Ca^2+) was measured for 3 minutes at 1-second intervals, and 100 μM PAR2-AP was treated to measure whether punicalagin inhibited the concentration change of intracellular calcium ions by PAR2 receptor activation.

For data set [8], the target named is T1, PAR2. Put plainly: Intracellular calcium increase by trypsin (PAR2 receptor activation) in HaCaT keratinocytes. It counts as cell-based. More on the design: endogenous in cells; host or cells: HaCaT keratinocytes. On the procedure:
After keratinocytes (HaCaT) were cultured for 48 hours in a 96-well micro plate with the DMEM culture medium, the culture medium was removed, and then, 100 μL of the Flou4-NW dye mixture was added. While blocking the light, it was stabilized for 1 hour such that a calcium ion dye (Ca^2+ dye) was loaded into the cells. 100 μM punicalagin was treated, and the concentration change of intracellular calcium ions was measured for 5 minutes (panel A of FIG. 17). Next, punicalin (0, 1, 3, 10, 20, 30, 100, and 300 μM) by concentration (panel B of FIG. 17) or punicalagin (0, 1, 3, 5, 10, 20, 30, and 100 μM) by concentration (panel C of FIG. 17) was treated for 10 minutes, and then, each well was treated with 0.1 μM trypsin to measure the concentration change of intracellular calcium ions according to PAR2 receptor activation.

For `O=CC1OC(=O)c2cc(O)c(O)c(O)c2-c2c(cc(O)c(O)c2O)C(=O)OC1C1OC(=O)c2cc(O)c(O)c(O)c2-c2c(O)c(O)c3oc(=O)c4c(c(O)c(O)c5oc(=O)c2c3c54)-c2c(cc(O)c(O)c2O)C(=O)OCC1O` (centres unmarked) [punicalagin, 1,2,3,11,12,13-hexahydroxy-5,10-dioxo-8-[3,4,5,11,17,18,19,22,23,34,35-undecahydroxy-8,14,26,31-tetraoxo-9,13,25,32-tetraoxaheptacyclo[25.8.0.0^2,7.0^15,20.0^21,30.0^24,29.0^28,33]pentatnaconta-1(35),2,4,6,15,17,19,21,23,27,29,33-dodecaen-10-yl]-5,7,8,10-tetrahydrodibenzo[f,h][1,4]dioxecin-7-carbaldehyde], the “inhibition of IL-6 cytokines increased by HDM” value in [1] (1 μM) is listed as “about 50%”. Also, the “inhibition of IL-6 cytokines increased by HDM” value in [1] (3 μM) was about 91%. Besides, the “inhibition of IL-6 cytokines increased by HDM” value in [1] (10 μM) was about 93%. For the same compound, in data set [2], the “colon tissue damage caused by TNBS” value is given as “inhibited colon tissue damage caused by TNBS in a concentration-dependent manner” and the “concentrations of inflammatory cytokines (INF-γ, IL-2, IL-4, IL-6, IL-β, TNF-α, IL-1β, etc.) increased by TNBS” value is on record as “significantly decreased”. In [2] (concentration-dependent), the “colon length reduction by TNBS” value is recorded as “significantly inhibited”, the “weight increase of the spleen by TNBS” value was “significantly inhibited” and the “weight loss by TNBS” value was “significantly inhibited”. Moreover, the “inhibition of edema of the pancreas (pancreas weight)” value in data set [3] (10 mg/kg, 30 minutes before 40 μg/kg caerulein, pancreas extracted after 2 hours) is at least 95%. Besides, the “edema of the pancreas and cell damage (H&E staining)” value in data set [3] (pretreated at 3 mg/kg, then caerulein) was “strongly inhibited”. Besides, the “concentrations of inflammatory cytokines (INF-γ, IL-2, IL-4, IL-6, IL-β, TNF-α, IL-1β, etc.) increased by caerulein” value in data set [3] (rat, in vivo) is “significantly decreased”. The “weight change in wild-type mice” value in data set [4] was “no weight change”. Also, in [5], the “histological difference in heart, liver, and lung tissues” value is on record as “no histological difference”. Besides, the “activity against carbonic anhydrase” value in the data set on carbonic anhydrase is “inhibitory activity”. Also, the toxicity entry in [6] is reported as “no toxicity”. In addition, the “concentration increases of intracellular calcium ions by house dust mites and PAR2-AP” value at PAR2 [7] is reported as “all inhibited”. In addition, the “effect on the concentration of intracellular calcium ions in keratinocytes (without trypsin)” value on PAR2 [8] (100 μM, 5 minutes) was “no effect”. In addition, on PAR2 [8] (HaCaT, 0.1 μM trypsin, 10 minutes pretreatment), the “inhibition of PAR2 receptor activity by trypsin” value was “inhibited PAR2 receptor activity by trypsin in a concentration-dependent manner”. Moreover, the IC50 on PAR2 [8] (HaCaT, 0.1 μM trypsin, read-out: IC50, inhibition of the PAR2 receptor (calcium increase by trypsin)) worked out at 5.24 µM. Moreover, the “strength of PAR2 receptor inhibition compared to punicalin” value on PAR2 [8] (HaCaT, trypsin) is on record as at least 3.7 times.
